Earlier results, collected in patent publication US20110256530A1, “PRODUCTS AND METHODS FOR TISSUE PRESERVATION” (GenVault Corporation, priority 2010, published 2011).

B1: RI: Large (~450 residues, ~49 kDa), acidic leucine-rich repeat protein that binds ribonucleases (protein, UniProt P13489 2-461, looked up)
Ribonuclease inhibitor: SLDIQSLDIQCEELSDARWAELLPLLQQCQVVRLDDCGLTEARCKDISSALRVNPALAELNLRSNELGDVGVHCVLQGLQTPSCKIQKLSLQNCCLTGAGCGVLSSTLRTLPTLQELHLSDNLLGDAGLQLLCEGLLDPQCRLEKLQLEYCSLSAASCEPLASVLRAKPDFKELTVSNNDINEAGVRVLCQGLKDSPCQLEALKLESCGVTSDNCRDLCGIVASKASLRELALGSNKLGDVGMAELCPGLLHPSSRLRTLWIWECGITAKGCGDLCRVLRAKESLKELSLAGNELGDEGARLLCETLLEPGCQLESLWVKSCSFTAACCSHFSSVLAQNRFLLELQISNNRLEDAGVRELCQGLGQPGSVLRVLWLADCDVSDSSCSSLAATLLANHSLRELDLSNNCLGDAGILQLVESVRQPGCLLEQLVLYDIYWSEEMEDRLQALEKDKPSLRVIS

Tests used:
nucleases = conditions: Table I, description in words
[1] = charge state, pH 7, literature references (30)-(33)
[2] = 25° C.

Molecule | Activity (nucleases) | Useful Chemical Properties [1] | further results
Uridine-Vanadate [Uridine-Vanadate U-V04] | RNase specific Inhibitor | – | –
Aurinetricarboxylic Acid [Aurinetricarboxylic Acid (ATA)n] | derivative, broad spectrum | – | –
Cn1cncc1C[C@H](NC(=O)CCN)C(=O)O [Anserine, Anserine (Alanine-methyl-histidine)] | – | Cation at pH 7 (32) | –
C=O [formalin, methylene glycol] | – | – | permeation through tissue block [2]: about 1 mm of tissue block per hour
N[C@@H](Cc1c[nH]cn1)C(=O)O [Histidine] | – | Neutral zwitterions | –
OC[C@@H](O)[C@@H](O)[C@H](O)[C@H](O)CO [Mannitol] | – | Neutral (31) | –
O=C(O)CN(CCN(CC(=O)O)CC(=O)O)CC(=O)O [EDTA] | Divalent Chelator, Inhibitor | – | –
B1 | – | – | complexes with certain ribonucleases (ribonucleases): extremely tight complexes
